From patent publication US7371364B2, “Cyclic peptide and imaging compound compositions and uses for targeted imaging and therapy” (Board of Regents, The University of Texas System, priority 2003, dated 2008)
Residues, ends and D or L forms follow the SMILES beside them.

Experiments:
αvβ3 integrin = molecular target: T1, αvβ3 integrin (Homo sapiens, UniProt P05106+P06756); experiment: In vitro blockage study of Cy5.5-c(KRGDf) binding to KS1767 cells (fluorescence microscopy); assay type: cell-based
T1 construct: endogenous in cells; host or cells: KS1767 sarcoma cells
T1 sequence (P06756 31-889 limits assumed): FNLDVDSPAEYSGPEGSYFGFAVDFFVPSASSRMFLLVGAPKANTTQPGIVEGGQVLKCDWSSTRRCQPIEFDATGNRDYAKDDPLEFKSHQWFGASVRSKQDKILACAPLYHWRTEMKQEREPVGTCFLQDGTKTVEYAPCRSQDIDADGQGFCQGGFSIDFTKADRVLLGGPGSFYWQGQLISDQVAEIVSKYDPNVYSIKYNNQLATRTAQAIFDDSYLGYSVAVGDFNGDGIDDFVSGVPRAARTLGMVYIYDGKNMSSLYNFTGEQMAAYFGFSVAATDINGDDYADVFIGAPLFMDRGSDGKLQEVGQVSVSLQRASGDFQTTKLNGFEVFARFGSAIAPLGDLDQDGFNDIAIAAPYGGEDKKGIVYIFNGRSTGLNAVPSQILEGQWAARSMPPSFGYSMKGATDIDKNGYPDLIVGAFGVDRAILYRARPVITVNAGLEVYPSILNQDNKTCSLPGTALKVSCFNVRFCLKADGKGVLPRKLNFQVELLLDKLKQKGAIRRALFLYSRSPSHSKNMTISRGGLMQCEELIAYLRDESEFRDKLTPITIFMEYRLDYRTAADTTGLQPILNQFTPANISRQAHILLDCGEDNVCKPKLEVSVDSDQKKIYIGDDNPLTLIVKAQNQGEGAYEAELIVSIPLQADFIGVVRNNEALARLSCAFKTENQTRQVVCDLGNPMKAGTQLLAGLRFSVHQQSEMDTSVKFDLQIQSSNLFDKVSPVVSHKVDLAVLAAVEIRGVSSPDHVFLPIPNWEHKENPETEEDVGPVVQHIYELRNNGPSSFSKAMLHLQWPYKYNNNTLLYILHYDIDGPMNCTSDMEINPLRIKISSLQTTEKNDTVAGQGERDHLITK
T1 sequence (P06756 891-1048 partner limits assumed): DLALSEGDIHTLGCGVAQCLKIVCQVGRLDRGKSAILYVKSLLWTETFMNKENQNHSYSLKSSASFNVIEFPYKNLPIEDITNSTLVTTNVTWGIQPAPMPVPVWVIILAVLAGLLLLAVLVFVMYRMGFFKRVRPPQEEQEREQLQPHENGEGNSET
T1 sequence (P05106 27-788): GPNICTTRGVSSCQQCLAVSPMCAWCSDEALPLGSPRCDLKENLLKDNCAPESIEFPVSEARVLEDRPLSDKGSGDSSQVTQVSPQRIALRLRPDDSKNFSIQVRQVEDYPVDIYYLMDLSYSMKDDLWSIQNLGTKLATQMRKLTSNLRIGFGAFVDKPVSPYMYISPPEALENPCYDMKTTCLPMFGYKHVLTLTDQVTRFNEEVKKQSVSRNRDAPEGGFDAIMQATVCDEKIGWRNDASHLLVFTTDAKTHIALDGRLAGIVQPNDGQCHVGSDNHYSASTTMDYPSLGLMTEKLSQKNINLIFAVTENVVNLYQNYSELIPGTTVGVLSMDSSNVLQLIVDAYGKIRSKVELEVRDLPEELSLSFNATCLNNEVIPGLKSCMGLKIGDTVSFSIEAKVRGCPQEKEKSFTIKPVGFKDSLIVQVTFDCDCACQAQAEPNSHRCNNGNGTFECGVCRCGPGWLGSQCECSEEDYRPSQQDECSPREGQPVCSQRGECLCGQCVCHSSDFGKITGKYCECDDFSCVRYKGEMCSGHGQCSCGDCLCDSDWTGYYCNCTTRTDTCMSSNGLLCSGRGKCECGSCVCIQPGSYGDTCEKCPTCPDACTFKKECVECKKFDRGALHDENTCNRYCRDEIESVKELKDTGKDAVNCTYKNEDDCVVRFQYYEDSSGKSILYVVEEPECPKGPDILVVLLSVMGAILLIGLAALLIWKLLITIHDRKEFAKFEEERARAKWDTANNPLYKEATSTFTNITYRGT
Protocol: KS1767 sarcoma cells were maintained at 37° C. in a humidified atmosphere containing 5% CO2 in Dulbecco's Modified Eagle's Medium/Nutrient Mixture F-12 Ham (DMEM/F12) and 10% FBS (Gibco, Grand Island, N.Y.).
Cells were seeded on cover slips in 24-well plates (Becton Dickinson Labware, Franklin Lakes, N.J.) and incubated in DMEM/F12 culture medium (0.5 ml/well) overnight. Unconjugated c(KRGDf; SEQ ID NO. 3) was added to the culture medium at various concentrations. Cy5.5-c(KRGDf; SEQ ID NO. 3) was added one hour later to each well at a concentration of 6 μM. Cells were washed twice with PBS and incubated in a solution of Sytox Green in 95% ethyl alcohol (1 μM, Molecular Probe, Eugene, Oreg.) for 15 minutes to fix and stain cell nuclei. Cells were washed again with PBS and the cover slips were mounted for microscopic examination using a DMR microscope (Leica Microsystems Inc., Bannockburn, Ill.). The microscope was equipped with a 75W Xenon lamp, 775 nm/845 nm, 560 nm/645 nm, and 480 nm/535 nm (Excitation/emission) filters (Chroma Technology Corp., Brattleboro, Vt.), a Hamamatsu B/W Chilled CCD Camera (Hamamatsu Photonics K.K., Hamamatsu City, Japan), and an Image-Pro Plus 4.5.1 software (Media Cybernetics, Silver Spring, Md.). In the multiple staining images, Cy5.5 was pseudocolored red and Sytox Green was green.

KS1767 tumors [1] = experiment: In vivo NIR imaging of subcutaneous KS1767 tumors with RGD imaging agent; parameters: species or system mice
From the text: Cy5.5-c(KRGDf; SEQ ID NO. 3) may be used in near infrared (NIR) imaging. Mice inoculated with KS1767 were used for in vivo NIR studies. The mice were four to six week-old athymic nude mice (18-22 g, Harlan Sprague Dawley, Inc. Indianapolis, Ind.) which were housed 5 per cage and fed with sterilized pellet chow (Harlan Sprague Dawley) and sterilized water. The animals were maintained in a pathogen-free mouse colony in the Department of Veterinary Medicine at the University of Texas M.D. Anderson Cancer Center. All experiments were performed in accordance with the guidelines of the Institutional Animal Care and Use Committee.
Tumor cells for use in the animals were harvested near confluence by incubation with 0.05% trypsin-EDTA. Cells were pelleted by centrifugation at 450×g for 5 minutes and resuspended in sterile PBS. […] cells/animal were implanted subcutaneously into the chest wall or hind legs of the mice. Imaging studies were performed when tumors reached 4-6 mm in average diameter.
(§1) In vivo fluorescence imaging was accomplished by illuminating the animal with light from a laser diode (35 mW) expanded to an approximate 8 cm diameter circular area. The fluorescent light re-emitted from the animal was collected by an image intensifier (model FS9910C, ITT Night Vision, Roanoke, Va.) lens-coupled to a CCD camera (model CH350, Photometrics, Tucson, Ariz.). The imaging was designed so that the field of view could be varied from 3×3 cm to over 12×12 cm by varying the image distance of the 50 mm lens used to focus the image onto the photocathode of the intensifier. The lens was fitted with a holographic notch-plus filter (660 nm center wavelength; Kaiser Optical Systems, Inc., Ann Arbor, Mich.) and a bandpass filter (710 nm center wavelength) to reject back-scattered and reflected excitation photons. Image acquisition was accomplished using V++ software (Digital Optics, Auckland, New Zealand) and the obtained images were stored in uncompressed tagged image file format (tiff). Data processing and analysis were accomplished using Matlab software (The MathWorks, Inc., Natick, Mass.). For all imaging sessions, the image acquisition parameters were kept constant, and each image required 800 ms of camera integration.
For dynamic in vivo fluorescence imaging, mice were anesthetized with an i.p. injection of 50 mg/kg pentobarbital, and a catheter was placed in the tail vein for i.v. injection of NIR dyes. A white-light image of the animal was obtained using a low-power lamp as a white light source with holographic and interference filters removed. Fluorescence images were then acquired as a function of time following administration of Cy5.5 (6 nmol per/mouse) or Cy5.5-c(KRGDf; SEQ ID NO. 3) (6 nmol per/mouse). […]

KS1767 cells = assay type: cell-based; conditions: 1 h
Protocol: A Cell Adhesion Assay was additionally performed. KS1767 cells were seeded in DMEM/F12 culture medium supplemented with 10% fetal bovine serum for 24 hr. Cells (1×10^5) with different concentrations of c(KRGDf; SEQ ID NO. 3) or Cy5.5-c(KRGDf; SEQ ID NO. 3) were added to vitronectin-coated microliter wells under serum-free conditions and incubated at 37° C. for 1 hr. After washing steps, the bound cells were stained with 5% crystal violet, followed by addition of 0.1M HCl to each well. The concentrations of crystal violet were determined by UV/V is absorption at 627 nm. IC50 values were estimated from the dose-activity curves.

KS1767 tumors [2] = experiment: Dynamic in vivo NIR imaging, tumor ROI versus normal muscle ROI; parameters: species or system mice
Protocol: For dynamic in vivo fluorescence imaging, mice were anesthetized with an i.p. injection of 50 mg/kg pentobarbital, and a catheter was placed in the tail vein for i.v. injection of NIR dyes. A white-light image of the animal was obtained using a low-power lamp as a white light source with holographic and interference filters removed. Fluorescence images were then acquired as a function of time following administration of Cy5.5 (6 nmol per/mouse) or Cy5.5-c(KRGDf; SEQ ID NO. 3) (6 nmol per/mouse). For blocking studies, c(KRGDf; SEQ ID NO. 3) (600 nmol/mouse) was injected intravenously at 1 hr and 24 hr prior to the injection of Cy5.5-c(KRGDf; SEQ ID NO. 3). The acquisition time was 800 ms. Images were obtained every 6 seconds (s) for up to 20 minutes (min) following injection of each imaging agent. Each mouse was imaged again 24 hr after contrast injection.
Two regions of interest (ROI) were selected for quantitative analyses. One ROI was located entirely within the circumference of the tumor, and the other, of approximate equivalent size, defined a symmetric region of normal tissue located opposite the tumor site. (See FIG. 32A.) Utilizing Matlab software, the mean of the fluorescence intensity within each ROI was computed for every fluorescence image acquired. Data were acquired from the tumor ROI. (See FIG. 32B.) Data were acquired from normal muscle ROI. […] The symbols denote experimental measurements while the solid line denotes the corresponding least-squares fit. Animals were injected with Cy5.5-c(KRGDf; SEQ ID NO. 3) alone (6 nmol) (□), or Cy5.5-cc(KRGDf; SEQ ID NO. 3) 1 hr (∘) and 24 hr (⋄) after the injection of unconjugated c(KRGDf; SEQ ID NO. 3) peptide (600 nmol).

[3] = tested on: integrin-positive M21 melanoma; experiment: In vivo NIR imaging of human melanoma xenograft, integrin-positive; parameters: species or system mice; conditions: for Visualization of tumor in NIR image: M21 melanoma, 24 hr after i.v. injection, 3 nmol/mouse
From the text: as §1

[4] = tested on: integrin-negative M21-L melanoma; experiment: In vivo NIR imaging of human melanoma xenograft, integrin-negative; parameters: species or system mice
From the text: as §1

[5] = Stability assay in serum-containing culture medium (HPLC); assay type: in vitro ADME; conditions: 25° C.; for Degradation in culture medium: 3 hours
Protocol: Each test peptide was incubated in a serum-containing culture medium (Dulbecco's Modified Eagle's Medium/Nutrient Mixture F-12 Ham and 10% FBS) (1 mg/ml) at 25° C. At various time intervals, aliquots of peptide solution (50 μL) were withdrawn and subjected to HPLC analysis. The percentage of remaining intact peptide was recorded as a function of time.

[6] = molecular target: αvβ3 integrin (on KS1767 cells) (UniProt P06756); experiment: cell-based or functional assay
αvβ3 integrin (on KS1767 cells), sequence (P06756 31-1048, chain 1 of 2): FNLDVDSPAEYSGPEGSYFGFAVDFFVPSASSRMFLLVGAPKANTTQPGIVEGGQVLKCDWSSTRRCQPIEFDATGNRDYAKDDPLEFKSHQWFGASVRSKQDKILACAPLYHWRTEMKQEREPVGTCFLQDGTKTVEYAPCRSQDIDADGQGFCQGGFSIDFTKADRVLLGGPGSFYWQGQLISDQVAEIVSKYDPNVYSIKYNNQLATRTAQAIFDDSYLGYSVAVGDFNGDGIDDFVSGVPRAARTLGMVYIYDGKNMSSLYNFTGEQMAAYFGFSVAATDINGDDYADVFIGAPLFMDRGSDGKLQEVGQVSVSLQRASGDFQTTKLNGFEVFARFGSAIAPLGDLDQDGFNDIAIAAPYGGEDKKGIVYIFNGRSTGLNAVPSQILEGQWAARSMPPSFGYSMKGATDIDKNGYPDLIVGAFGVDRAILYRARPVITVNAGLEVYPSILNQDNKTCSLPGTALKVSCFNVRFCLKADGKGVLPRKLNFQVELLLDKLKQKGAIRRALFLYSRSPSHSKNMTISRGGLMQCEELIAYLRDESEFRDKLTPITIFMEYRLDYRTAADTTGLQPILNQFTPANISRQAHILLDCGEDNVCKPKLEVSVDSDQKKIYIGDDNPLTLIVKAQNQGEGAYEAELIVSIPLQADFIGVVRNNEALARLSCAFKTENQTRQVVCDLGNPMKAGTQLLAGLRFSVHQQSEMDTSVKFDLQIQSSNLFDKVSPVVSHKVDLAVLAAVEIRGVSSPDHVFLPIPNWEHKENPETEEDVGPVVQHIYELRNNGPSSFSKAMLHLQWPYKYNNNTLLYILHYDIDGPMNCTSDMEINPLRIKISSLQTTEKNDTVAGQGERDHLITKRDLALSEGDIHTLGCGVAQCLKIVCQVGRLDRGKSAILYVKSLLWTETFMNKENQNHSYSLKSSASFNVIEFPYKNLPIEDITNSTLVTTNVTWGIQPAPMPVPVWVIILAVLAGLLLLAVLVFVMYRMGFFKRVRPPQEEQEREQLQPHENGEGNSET
αvβ3 integrin (on KS1767 cells), sequence (P05106 27-788, chain 2 of 2, further chain): as the sequence (P05106 27-788) above

## CC[N+]1=C(C=CC=CC=C2N(CCCCCC(=O)NCCCC[C@@H]3NC(=O)[C@@H](Cc4ccccc4)NC(=O)[C@H](CC(=O)O)NC(=O)CNC(=O)[C@H](CCCNC(=N)N)NC3=O)c3ccc4c(S(=O)(=O)O)cc(S(=O)(=O)O)cc4c3C2(C)C)C(C)(C)c2c1ccc1c(S(=O)(=O)[O-])cc(S(=O)(=O)O)cc21 [Cy5.5-c(KRGDf; SEQ ID NO. 3)]
αvβ3 integrin; KS1767 cells, 6 μM imaging agent
  In vitro binding to αvβ3: demonstrated
KS1767 tumors [1]; ex vivo, KS1767 tumor excised 48 hr after i.v. injection
  Localization in excised tumor and adjacent muscle tissue (fluorescence microscopy): localized to the tumor, but not to the muscle cells
KS1767 tumors [1]; subcutaneous KS1767 tumors, i.v. 6 nmol/mouse, image 24 hours after injection
  Tumor targeting / uptake in NIR image: clearly showed targeting
KS1767 cells
  IC50: ~1.11 µM
KS1767 tumors [2]; 6 nmol/mouse i.v., dynamic imaging up to 20 min
  Rate of uptake in KS1767 tumors compared with muscle: faster
KS1767 tumors [2]; c(KRGDf) 600 nmol, interval between injections 24 hr
  Rate of uptake in the tumor after preinjection of c(KRGDf): partially recovered

## CC1(C)C(/C=C/C2=C(Oc3ccc(S(=O)(=O)O)cc3)C(=C/C=C3/N(CCCCS(=O)(=O)O)c4ccc(S(=O)(=O)[O-])cc4C3(C)C)/CCC2)=[N+](CCCCCC(=O)O)c2ccc(S(=O)(=O)O)cc21 [IRDye800, reference compound]
[3]
  Visualization of tumor in NIR image: did not have detectable signal

## CC1(C)C(=CC=C2CCCC(C=CC3=[N+](CCCCS(=O)(=O)O)c4ccc(S(=O)(=O)[O-])cc4C3(C)C)=C2Oc2ccc(S(=O)(=O)O)cc2)N(CCCCCC(=O)NCCCC[C@@H]2NC(=O)[C@@H](Cc3ccccc3)NC(=O)[C@H](CC(=O)O)NC(=O)CNC(=O)[C@H](CCCNC(=N)N)NC2=O)c2ccc(S(=O)(=O)O)cc21 [IRDye800-c(KRGDf; SEQ ID NO. 3)]
[3]
  Visualization of tumor in NIR image: clearly visualized
[3]; mice with M21 tumors, from fluorescence intensity in region-of-interest
  Tumor-to-background ratio: 1.7
[4]; M21-L melanoma, 24 hr after i.v. injection, 3 nmol/mouse
  Visualization of tumor in NIR image: not
[4]; mice with M21-L tumors, from fluorescence intensity in region-of-interest
  Tumor-to-background ratio: 1.1
KS1767 cells
  IC50: ~2.58 µM

## CC(C)C[C@@H]1NC(=O)[C@H]([C@@H](C)O)NC(=O)[C@H](Cc2ccccc2)NC(=O)CNC(=O)[C@H](Cc2c[nH]c3ccccc23)NC(=O)[C@H](Cc2c[nH]cn2)NC(=O)[C@H]([C@@H](C)O)NC(=O)[C@H]([C@@H](C)O)NC(=O)[C@H](C)NC(=O)CCNC1=O [c(ATTHWGFTLβA; SEQ ID NO. 2)] (HELM PEPTIDE1{A.T.T.H.W.G.F.T.L.[bAla]}$PEPTIDE1,PEPTIDE1,1:R1-10:R2$$$V2.0; bridges inferred)
[5]
  Degradation in culture medium: no apparent degradation
[5]; 5 days
  Degradation over the course of the study: no degradation

## CC(C)C[C@@H]1NC(=O)[C@H]([C@@H](C)O)NC(=O)[C@H](Cc2ccccc2)NC(=O)CNC(=O)[C@H](Cc2c[nH]c3ccccc23)NC(=O)[C@H](Cc2c[nH]cn2)NC(=O)[C@H]([C@@H](C)O)NC(=O)[C@H]([C@@H](C)O)NC(=O)[C@@H](N)CSSC[C@@H](C(N)=O)NC1=O [c(CTTHWGFTLC; SEQ ID NO. 1), reference compound] (HELM PEPTIDE1{C.T.T.H.W.G.F.T.L.C.[am]}$PEPTIDE1,PEPTIDE1,1:R3-10:R3$$$V2.0)
[5]
  Degradation in culture medium: degrades completely
[5]; serum-containing culture medium (DMEM/F-12 Ham with 10% FBS), after 3 hours, read-out: Peptide degraded
  metabolised at 3 h, 1 mg/ml: > 90%

## N=C(N)NCCC[C@@H]1NC(=O)[C@H](CCCCN)NC(=O)[C@@H](Cc2ccccc2)NC(=O)[C@H](CC(=O)O)NC(=O)CNC1=O [c(KRGDf; SEQ ID NO. 3), cyclo(Lys-Arg-Gly-Asp-phe), reference compound]
αvβ3 integrin; unconjugated peptide added one hour before 6 μM Cy5.5-c(KRGDf)
  Blockage of Cy5.5-c(KRGDf) binding to KS1767 cells: dose-dependent blockage
KS1767 tumors [1]; 100-fold c(KRGDf) injected 1 hour before Cy5.5-c(KRGDf)
  Effect of pretreatment on uptake of fluorophores in KS1767 tumors: blocked the uptake
KS1767 cells
  IC50: ~2.47 µM
KS1767 tumors [2]; c(KRGDf) 600 nmol, interval between injections 1 hr
  Effect of preinjection on uptake of Cy5.5-c(KRGDf) in the tumor: blocked the uptake

## Cy5.5-c(KRGDf; SEQ ID NO. 3) (peptide)
[6]
  IC50 of inhibition of adhesion of KS1767 cells to vitronectin-coated microplate wells: 1.11 µM

## cyclo(Lys-Arg-Gly-Asp-phe), c(KRGDf; SEQ ID NO. 3) (peptide)
[6]
  IC50 of inhibition of adhesion of KS1767 cells to vitronectin-coated microplate wells: 2.47 µM
